Patent publication US4571408A, “α,β-Dihydropolyprenyl derivatives for treating hepatitis” (Eisai Co., Ltd., priority 1980, dated 1986)

Columns and labels:
rats (Wistar strain) = assay: Toxicity (oral administration to rats); assay type: in vivo; settings: orally, 4,000 mg./kg., ten rats (Wistar strain), suspended in 5% aqueous gum arabic solution
Method: Each of the above-listed compounds, A, B, C and D was suspended in a 5% aqueous gum arabic solution and then was administered orally to ten rats (Wistar strain) in the dosage of 4,000 mg./kg.

[1] = system: liver disease (hepatitis) induced by D-galactosamine; assay: Activity against liver disease (hepatitis) induced by D-galactosamine; assay type: in vivo, rats (SD strain); settings: test compound orally 400 mg./kg. each time (0, 4, 10, 24 h); D-galactosamine hydrochloride s.c. 200 mg./kg. (4, 10, 24 h); blood collection at 28 h; nine rats per group
Method: Activity against liver disease (hepatitis) induced by D-galactosamine
D-Galactosamine hydrochloride and the above-listed compound were administered (1) subcutaneously in the dosage of 200 mg./kg. each time and (2) orally in the dosage of 400 mg./kg. each time, respectively, to rats (SD strain, weight: approximately 250 g.) according to the schedule described hereinafter. After completion of the administrations, the blood was collected from the rats and there were measured the GOT value, GPT value and alkali phosphotase value, all of which are indicative of the degree of liver disease.
Each test compound was administered in the form of a suspension thereof in a 5% aqueous gum arabic solution. The D-galactosamine hydrochloride was administered in the form of an aqueous solution thereof in distilled water adjusted to pH 7 by addition of potassium hydroxide.
There were provided the test compound groups (nine rats per each group) in which the rats were administered with the test compound and with D-galactosamine hydrochloride; a control group (fourteen rats) in which the rats were administered with a plain 5% aqueous gum arabic solution free of the test compound and with D-galactosamine hydrochloride; and a normal group (eight rats) in which the rats were not administered with either the test compound or D-galactosamine hydrochloride.
4 test compound and D-galactosamine
10 test compound and D-galactosamine
24 test compound and D-galactosamine

SMILES	Deaths of the rats (rats (Wistar strain))	Alkali phosphatase value [1]	GOT value [1]	GPT value [1]
CC(C)=CCC/C(C)=C/CC/C(C)=C/CCC(C)CC(=O)O (stereo not shown) [Compound A, (E, E)-3,7,11,15-tetramethyl-6,10,14-hexadecatrienoic acid]	No deaths of the rats were observed	56.2 KA - u	312.4 carmen unit	208.3 carmen unit
CC(=O)OCCC(C)CC/C=C(\C)CC/C=C(\C)CCC=C(C)C (stereo not shown) [Compound D, (E, E)-3,7,11,15-tetramethyl-6,10,14-hexadecatrienyl acetate]	No deaths of the rats were observed	53.5 KA - u	315.3 carmen unit	178.7 carmen unit
CCOC(=O)CC(C)CC/C=C(\C)CC/C=C(\C)CCC=C(C)C (stereo not shown) [Compound B, ethyl (E, E)-3,7,11,15-tetramethyl-6,10,14-hexadecatrienoate]	No deaths of the rats were observed	55.8 KA - u	307.1 carmen unit	199.7 carmen unit
CC(C)=CCC/C(C)=C/CC/C(C)=C/CCC(C)CCO (stereo not shown) [Compound C, (E, E)-3,7,11,15-tetramethyl-6,10,14-hexadecatrien-1-ol]	No deaths of the rats were observed	54.2 KA - u	337.7 carmen unit	185.6 carmen unit
